Data: PubChem BioAssay (NCI)
Several values for one entry are separate records, joined by “and”; a condition that tells them apart may be missing. Equal values may be shown once.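 Where inhibition never reached the appropriate level, the endpoint shown equals the highest concentration tested. Otherwise, values were interpolated linearly from a five-concentration, 48-hour dose response in 96-well plates. GI50 marks 50% less growth. The concentration for full growth arrest is given as TGI.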

What was measured:
Experiment in all cases: inhibition of tumour cell growth, NCI panel, 48 h
[1] = test system: COLO 205 colon
[2] = test system: SF-268 CNS
[3] = test system: HL-60(TB) leukemia
[4] = test system: A549 NSCLC
[5] = test system: HT29 colon
[6] = test system: SW-620 colon
[7] = test system: SK-MEL-2 melanoma
[8] = test system: LOX IMVI melanoma
[9] = test system: A498 renal
[10] = test system: 786-0 renal

| Structure (SMILES) | GI50 [1] | TGI [1] | GI50 [2] | TGI [2] | GI50 [3] | TGI [3] | GI50 [4] | TGI [4] | GI50 [5] | TGI [5] | GI50 [6] | TGI [6] | GI50 [7] | TGI [7] | GI50 [8] | TGI [8] | GI50 [9] | TGI [9] | GI50 [10] | TGI [10] |
| --- | --- | --- | --- | --- | --- | --- | --- | --- | --- | --- | --- | --- | --- | --- | --- | --- | --- | --- | --- | --- |
| COCCOCCOCCOCCOC(=O)OC[n+]1ccc(NC(=NCCCCCCOc2ccc(Cl)cc2)NC#N)cc1 | 0.231 µM | 15.5 µM | 11.9 µM | 26.9 µM | 3.25 µM | 10.7 µM | 2.22 µM | 19.2 µM | 0.0369 µM | 18.2 µM | < 0.01 µM | 16.3 µM | 11.4 µM | 27.3 µM | 2.57 µM | 20.6 µM | 1.28 µM | 15.4 µM | 10.3 µM | 22.9 µM |
| O=C(Cc1ccccc1)C(c1ccccc1)S(=O)(=O)c1ccccc1 (stereo not given) |  | > 100 µM |  | > 100 µM |  | > 100 µM |  | > 100 µM |  | > 100 µM |  | > 100 µM |  | > 100 µM |  | > 100 µM |  | > 100 µM |  | > 100 µM |
| COc1cc(C(=O)/C=C/c2c(C(F)(F)F)nc3ccccn23)cc(OC)c1OC | 2.11 µM | 4.36 µM | 1.64 µM | 3.52 µM | 4.12 µM | > 100 µM | 4.04 µM | > 100 µM | 1.93 µM | 4.45 µM | 1.68 µM | 4.24 µM | 2.43 µM | 6.07 µM | 1.66 µM | 3.77 µM | 2.4 µM | 5.77 µM | 1.72 µM | 3.42 µM |
| C#CCNC(=O)NC(CCCCNC(=O)OCc1ccccc1)C(=O)OCc1ccccc1 (stereo not given) |  | 46.9 µM |  | > 100 µM |  | 46.7 µM |  | > 100 µM |  | > 56.2 µM |  | > 100 µM |  | > 75.8 µM |  | > 88.4 µM |  | 53.6 µM |  | > 100 µM |
| N#Cc1c(NC(=O)c2ccccc2F)sc2c1CCCC2 | 22.2 µM | > 25 µM | > 25 µM | > 25 µM | > 25 µM | > 25 µM | > 25 µM | > 25 µM | 10.4 µM | > 25 µM | 8.77 µM | > 25 µM | > 25 µM | > 25 µM | > 25 µM | > 25 µM | > 16.7 µM | > 25 µM | > 25 µM | > 25 µM |
| O=c1[nH]c(=S)[nH]c(-c2ccccc2)c1Cc1c(O)ccc2ccccc12 |  | 42.1 µM |  | > 100 µM |  | 50.5 µM |  | > 100 µM |  | > 100 µM |  | > 100 µM |  | 48.6 µM |  | > 100 µM |  | 44.7 µM |  | > 100 µM |
| COc1c(OC(C)C)cc2cc(O)c(C(=O)NC3Cc4ccc(c(Cl)n4)O[C@@H]4C=C5C#C/C(=C\C#CC6OC56C4OC4CC(C)(O)C(O)C(C)O4)C(OC4CC(O)C(N(C)C)C(C)O4)COC3=O)cc2c1OC (stereo not given in full) | > 36.3 µM and 0.345 µg/mL | > 36.3 µM and 13.6 µg/mL | 11.5 µM and 0.838 µg/mL | > 36.3 µM and 17.3 µg/mL | 27.5 µM and 0.019 µg/mL | > 36.3 µM and 0.336 µg/mL | > 36.3 µM and 0.798 µg/mL | > 36.3 µM and 37.5 µg/mL | > 36.3 µM and 0.714 µg/mL | > 36.3 µM and 37.5 µg/mL | 0.165 µg/mL | 37.5 µg/mL | 10 µg/mL | > 36.3 µM and 31.8 µg/mL | 0.529 µg/mL | 17.8 µg/mL | 0.168 µg/mL | > 36.3 µM and 8.7 µg/mL | 7.1 µM and 0.244 µg/mL | > 36.3 µM and 2.79 µg/mL |
